# Experimental data: ChEMBL document CHEMBL1124261 (J Med Chem, 1988)
# Experiments:
# L1210 [1] = test: Range for the survival of mice infected with L1210 leukemia after an intraperitoneal dose of 4 mg/kg for 9 days; type: functional, Mus musculus
# L1210 [2] = test: Increase in life span of mice infected with L1210 leukemia after an intraperitoneal dose of 4 mg/kg for 9 days; type: functional; details: Mus musculus, L1210, ip, 216 h
# L1210 [3] = test: Mean change in weight of mice infected with L1210 leukemia after 7 days after an intraperitoneal dose of 4 mg/kg; type: functional, Mus musculus
# L1210 [4] = test: Mean survival of mice infected with L1210 leukemia after an intraperitoneal dose of 4 mg/kg for 9 days; type: functional, Mus musculus
# L1210 [5] = test: Mean change in weight of mice infected with L1210 leukemia after 7 days after an intraperitoneal dose of 25 mg/kg; type: functional, Mus musculus
# Dihydrofolate reductase = molecular target: T1, Dihydrofolate reductase (Mus musculus, UniProt P00375); test: biochemical
# T1 sequence (P00375 whole entry): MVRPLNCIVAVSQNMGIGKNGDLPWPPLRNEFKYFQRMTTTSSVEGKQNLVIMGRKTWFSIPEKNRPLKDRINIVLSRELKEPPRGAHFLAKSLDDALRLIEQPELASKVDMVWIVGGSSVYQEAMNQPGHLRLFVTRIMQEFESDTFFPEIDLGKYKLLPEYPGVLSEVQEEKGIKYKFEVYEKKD
# Description: Tested for inhibition against purified Dihydrofolate reductase from L1210 murine leukemia cells
# L1210 [6] = test: Increase in life span of mice infected with L1210 leukemia after an intraperitoneal dose of 12.5 mg/kg for 9 days; type: functional; details: Mus musculus, L1210, ip, 216 h
# L1210 [7] = test: Mean survival of mice infected with L1210 leukemia after an intraperitoneal dose of 25 mg/kg for 9 days; type: functional, Mus musculus
# L1210 [8] = test: Tested for cell-growth inhibition against mouse leukemic L1210 cells; type: functional, cell-based
# L1210 [9] = test: Mean change in weight of mice infected with L1210 leukemia after 7 days after an intraperitoneal dose of 50 mg/kg; type: functional, Mus musculus
# L1210 [10] = test: Increase in life span of mice infected with L1210 leukemia after an intraperitoneal dose of 50 mg/kg for 9 days; type: functional; details: Mus musculus, L1210, ip, 216 h
# L1210 [11] = test: Range for the survival of mice infected with L1210 leukemia after an intraperitoneal dose of 6.25 mg/kg for 9 days; Range is 10-13; type: functional, Mus musculus
# L1210 [12] = test: Mean change in weight of mice infected with L1210 leukemia after 7 days after an intraperitoneal dose of 12.5 mg/kg; type: functional, Mus musculus
# L1210 [13] = test: Mean survival of mice infected with L1210 leukemia after an intraperitoneal dose of 12.5 mg/kg for 9 days; type: functional, Mus musculus
# [14] = Inhibitory constant against purified Folyl-polyglutamate synthase from mouse liver; type: functional
# L1210 [15] = test: Range for the survival of mice infected with L1210 leukemia after an intraperitoneal dose of 12.5 mg/kg for 9 days; Range is 10-15; type: functional, Mus musculus
# L1210 [16] = test: Mean survival of mice infected with L1210 leukemia after an intraperitoneal dose of 50 mg/kg for 9 days; type: functional, Mus musculus
# L1210 ( R81) = test: Tested for cell-growth inhibition against mouse leukemic L1210/R81 cells; type: functional, cell-based
# Mus musculus [17] = organism: Mus musculus; test: (§1) Tested for inhibition against purified Folyl-polyglutamate synthase from mouse liver; type: functional; details: dose or concentration not given here
# L1210 [18] = test: Increase in life span of mice infected with L1210 leukemia after an intraperitoneal dose of 6.25 mg/kg for 9 days; type: functional; details: Mus musculus, L1210, ip, 216 h
# L1210 [19] = test: Mean survival of mice infected with L1210 leukemia after an intraperitoneal dose of 6.25 mg/kg for 9 days; type: functional, Mus musculus
# L1210 [20] = test: Range for the survival of mice infected with L1210 leukemia after an intraperitoneal dose of 25 mg/kg for 9 days; type: functional, Mus musculus
# L1210 [21] = test: Range for the survival of mice infected with L1210 leukemia after an intraperitoneal dose of 50 mg/kg for 9 days; Range is 8-16
# L1210 [22] = test: Increase in life span of mice infected with L1210 leukemia after an intraperitoneal dose of 25 mg/kg for 9 days; type: functional; details: Mus musculus, L1210, ip, 216 h
# L1210 [23] = test: Mean change in weight of mice infected with L1210 leukemia after 7 days after an intraperitoneal dose of 6.25 mg/kg; type: functional, Mus musculus
# L1210 [24] = test: Range for the survival of mice infected with L1210 leukemia after an intraperitoneal dose of 12.5 mg/kg for 9 days; type: functional, Mus musculus
# L1210 [25] = test: Range for the survival of mice infected with L1210 leukemia after an intraperitoneal dose of 6.25 mg/kg for 9 days; type: functional, Mus musculus
# Mus musculus [26] = organism: Mus musculus; test: as §1; details: concentration not given here
# L1210 [27] = test: Range for the survival of mice infected with L1210 leukemia after an intraperitoneal dose of 50 mg/kg for 9 days; type: functional, Mus musculus
SMILES,Weight change (L1210 [5]) [%],IC50 (Dihydrofolate reductase) [nM],ILS at 12.5 mg/kg (L1210 [6]) [%],Survival (L1210 [7]) [days],IC50 (L1210 [8]) [nM],Weight change (L1210 [9]) [%],ILS at 50 mg/kg (L1210 [10]) [%],Weight change (L1210 [12]) [%],Survival (L1210 [13]) [days],Ki [14] [nM],Survival (L1210 [16]) [days],IC50 (L1210 ( R81)) [nM],ILS at 6.25 mg/kg (L1210 [18]) [%],Survival (L1210 [19]) [days],Range (L1210 [20]) [days],ILS at 25 mg/kg (L1210 [22]) [%],Weight change (L1210 [23]) [%],also measured
CN(Cc1cnc2nc(N)nc(N)c2n1)c1ccc(C(=O)N[C@@H](CCC(=O)O)C(=O)O)cc1 [METHOTREXATE],–,–,–,–,–,–,–,–,–,–,–,–,–,–,–,–,–,Range (L1210 [1]): 23 days; ILS at 4 mg/kg (L1210 [2]): 95%; Weight change (L1210 [3]): 8%; Survival (L1210 [4]): 17.2 days
Nc1nc(N)c2nc(CNc3ccc(C(=O)NC(CCCCCCC(=O)O)C(=O)O)cc3)cnc2n1 (stereo unspecified),5,54,61,11.8,20,7,20,9,14.2,170000,10.6,> 218000,36,12,16,34,9,Range (L1210 [11]): 10 days; Range (L1210 [15]): 10 days; inhibition (Mus musculus [17]): 50%; Range (L1210 [21]): 8 days
Nc1nc(N)c2nc(CNc3ccc(C(=O)NC(CCCCCCCCCCC(=O)O)C(=O)O)cc3)cnc2n1 (stereo unspecified),-3,67,57,9.6,1.1,4,18,10,13.8,62000,10.4,215000,45,12.8,16,11,10,Range (L1210 [24]): 16 days; Range (L1210 [25]): 13 days; inhibition (Mus musculus [26]): 74%; Range (L1210 [27]): 15 days
